Results reported in US10556907B2 (AbbVie Inc., priority 2015, dated 2020).
One block for each compound: values may come before it.

Experiments:
Experiment in all cases: Method 1: intracellular Ca2+ release (FLIPR, Calcium 5) in recombinant CHO-K1 cells
Assay type in all cases: cell-based
human S1PR1 receptor = target: T1, human S1PR1 receptor (Homo sapiens, UniProt P21453); conditions: (1): determined with method 1; read-out: S1P1 EC50
T1 construct: host or cells: CHO-K1
Experimental: (§1) Agonistic activity was measured using two different methods, described below.
(§2) Method 1. Intracellular Ca^2+ Release
(§3) Agonist potency and intrinsic activity was assessed by measurement of intracellular Ca^2+ release. Recombinant CHO-K1 cells (Euroscreen, Brussels, Belgium) expressing human S1PR5, S1PR1, S1PR3 or S1PR4 receptors, aequorin, and GTP binding protein Gq/i5 were cultured using a medium containing nutrient mixture F-12 Ham (Sigma-Aldrich) with 10% FBS, and 100 μg/mL gentamicin and equilibrated at 5% CO2.
(§4) 15.000 cells in 20 μL medium were seeded into Biocoat poly-D-Lysine coated 384 well plates (Becton Dickinson #35-6663) and grown to 95% confluency after 24 h.
(§5) Culture medium was replaced by an assay buffer consisting of HBBS with Ca^2+ and Mg^2+ (Invitrogen #14025-050), 20 mmol/L Hepes (Sigma-Aldrich #H-3375), 2.5 mmol/L probenecid (Sigma-Aldrich #P-8761, and 0.1% BSA (Sigma-Aldrich #A-7030) pH 7.4. The Calcium 5 no-wash FLIPR assay kit (Molecular Devices #5000625) was performed as described in the kit instructions. Cells were incubated with Calcium 5 dye for 1 h at 37° C., 5% CO2 in the dark. After 45 min adaptation to RT assessment of agonist stimulation of intracellular Ca^2+ release was performed by addition of test compounds at concentrations obtained by serial dilution. Phospho-fingolimod was used as positive control. Antagonists were pre-incubated for 10 min with cells before addition of the agonist (phospho-fingolimod at EC80). Measurements were performed using a fluorometric imaging plate reader FLIPR® tetra (Molecular Devices). Agonist at the human S1P receptors were characterized by deducing EC50 (potency) values from a nonlinear fit to the measured fluorescence raw data after normalization to the reference agonist (phospho-fingolimod) curve.

human S1PR3 receptor = target: T2, human S1PR3 receptor (Homo sapiens, UniProt Q99500); conditions: (1): determined with method 1; read-out: S1P3 EC50
T2 construct: host or cells: CHO-K1
T2 sequence (Q99500 whole entry): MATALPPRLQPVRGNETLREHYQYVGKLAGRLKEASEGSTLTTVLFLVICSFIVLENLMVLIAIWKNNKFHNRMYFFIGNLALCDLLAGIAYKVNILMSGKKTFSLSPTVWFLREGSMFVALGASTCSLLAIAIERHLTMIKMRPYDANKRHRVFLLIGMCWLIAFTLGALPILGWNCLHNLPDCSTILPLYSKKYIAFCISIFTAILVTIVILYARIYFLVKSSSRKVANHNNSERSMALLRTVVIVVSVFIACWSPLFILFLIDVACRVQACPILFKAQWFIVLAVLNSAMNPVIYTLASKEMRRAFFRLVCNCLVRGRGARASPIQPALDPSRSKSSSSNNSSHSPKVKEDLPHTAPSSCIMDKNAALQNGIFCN
Experimental: as §1, §2, §3, §4, §5

human S1PR5 receptor = target: T3, human S1PR5 receptor (Homo sapiens, UniProt Q9H228); conditions: agonist potency, determined with method 1 (symbols A-D); read-out: S1P5 EC50 range
T3 construct: host or cells: CHO-K1
T3 sequence (Q9H228 whole entry): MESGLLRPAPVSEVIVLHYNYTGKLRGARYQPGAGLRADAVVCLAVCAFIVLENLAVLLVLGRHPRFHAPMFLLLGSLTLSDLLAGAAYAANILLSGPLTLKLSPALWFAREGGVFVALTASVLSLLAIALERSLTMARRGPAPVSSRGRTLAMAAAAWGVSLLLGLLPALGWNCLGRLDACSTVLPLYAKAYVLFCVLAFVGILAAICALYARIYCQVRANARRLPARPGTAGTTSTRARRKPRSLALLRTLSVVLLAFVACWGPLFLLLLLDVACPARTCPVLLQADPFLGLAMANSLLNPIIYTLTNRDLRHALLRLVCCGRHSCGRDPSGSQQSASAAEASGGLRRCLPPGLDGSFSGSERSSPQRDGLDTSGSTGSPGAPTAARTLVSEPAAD
Experimental: as §1, §2, §3, §4, §5

T1 sequence (P21453 whole entry): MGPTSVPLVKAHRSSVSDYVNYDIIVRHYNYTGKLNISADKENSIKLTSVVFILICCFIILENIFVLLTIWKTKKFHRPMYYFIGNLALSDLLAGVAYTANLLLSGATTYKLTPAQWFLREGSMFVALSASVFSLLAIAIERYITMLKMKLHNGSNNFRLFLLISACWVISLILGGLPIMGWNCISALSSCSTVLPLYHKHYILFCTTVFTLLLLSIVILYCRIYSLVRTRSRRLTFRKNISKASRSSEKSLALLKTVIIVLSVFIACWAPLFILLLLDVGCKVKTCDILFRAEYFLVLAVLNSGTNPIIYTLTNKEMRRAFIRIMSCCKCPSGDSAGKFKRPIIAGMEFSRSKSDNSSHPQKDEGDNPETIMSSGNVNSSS

SMILES: Cc1ccc(COc2ccc(-c3ccc4c(n3)CCN(CCC(=O)O)C4)cc2)cc1C(F)(F)F [Compound 154, 3-(2-(4-((3-trifluoromethyl-4-(methyl)benzyl)oxy)phenyl)-7,8-dihydro-1,6-naphthyridin-6(5H)-yl)propanoic acid]
- EC50 (human S1PR1 receptor): > 1000 nM
- EC50 (human S1PR3 receptor): > 1000 nM
- EC50 (human S1PR5 receptor): 10 to 100 nM

SMILES: CC(C)Oc1ccc(-c2ncc3c(n2)CCN(CCC(=O)O)C3)cc1Cl [Compound 79, 3-(2-(3-chloro-4-isopropoxyphenyl)-7,8-dihydropyrido[4,3-d]pyrimidin-6(5H)-yl)propanoic acid]
- EC50 (human S1PR1 receptor): > 1000 nM
- EC50 (human S1PR3 receptor): > 1000 nM
- EC50 (human S1PR5 receptor): 1000 to 10000 nM

SMILES: CC(CN1CCc2nc(-c3cccc(OCc4ccccc4)c3)ccc2C1)C(=O)O (stereo not drawn) [Compound 107]
- EC50 (human S1PR1 receptor): > 1000 nM
- EC50 (human S1PR3 receptor): > 1000 nM
- EC50 (human S1PR5 receptor): 1000 to 10000 nM

SMILES: O=C(O)CCN1CCc2nc(-c3ccc(OCc4ccc(F)cc4)cc3)c(F)cc2C1 [Compound 190, 3-(2-(4-((4-fluorobenzyl)oxy)phenyl)-3-fluoro-7,8-dihydro-1,6-naphthyridin-6(5H)-yl)propanoic acid]
- EC50 (human S1PR1 receptor): < 1000 nM
- EC50 (human S1PR3 receptor): > 1000 nM
- EC50 (human S1PR5 receptor): < 10 nM

SMILES: O=C(O)CCN1CCc2nc(-c3ccc(OCc4ccc(Cl)cc4)cc3)c(F)cc2C1 [Compound 187, 3-(2-(4-((4-chlorobenzyl)oxy)phenyl)-3-fluoro-7,8-dihydro-1,6-naphthyridin-6(5H)-yl)propanoic acid]
- EC50 (human S1PR1 receptor): < 1000 nM
- EC50 (human S1PR3 receptor): > 1000 nM
- EC50 (human S1PR5 receptor): < 10 nM

SMILES: CC(CN1CCc2nc(-c3ccc(OCc4ccccc4)cc3Cl)ccc2C1)C(=O)O (stereo not drawn) [Compound 108, 3-(2-(4-(benzyloxy)-2-chlorophenyl)-7,8-dihydro-1,6-naphthyridin-6(5H)-yl)-2-methylpropanoic acid]
- EC50 (human S1PR1 receptor): > 1000 nM
- EC50 (human S1PR3 receptor): > 1000 nM
- EC50 (human S1PR5 receptor): 100 to 1000 nM

SMILES: O=C(O)CCCN1CCc2nc(C#Cc3cc(F)ccc3F)ncc2C1 [Compound 49, 4-(2-((2,5-difluorophenyl)ethynyl)-7,8-dihydropyrido[4,3-d]pyrimidin-6(5H)-yl)butanoic acid]
- EC50 (human S1PR1 receptor): > 1000 nM
- EC50 (human S1PR3 receptor): > 1000 nM
- EC50 (human S1PR5 receptor): 1000 to 10000 nM

SMILES: Cc1ccc(C(F)(F)F)cc1COc1ccc(-c2ccc3c(n2)CCN(CCC(=O)O)C3)cc1 [Compound 158, 3-(2-(4-((2-methyl-5-(trifluoromethyl)benzyl)oxy)phenyl)-7,8-dihydro-1,6-naphthyridin-6(5H)-yl)propanoic acid]
- EC50 (human S1PR1 receptor): > 1000 nM
- EC50 (human S1PR3 receptor): > 1000 nM
- EC50 (human S1PR5 receptor): 10 to 100 nM

SMILES: CC(CN1CCc2nc(-c3ccc(OCc4ccccc4)cc3F)ccc2C1)C(=O)O (stereo not drawn) [Compound 102, 3-(2-(4-(benzyloxy)-2-fluorophenyl)-7,8-dihydro-1,6-naphthyridin-6(5H)-yl)-2-methylpropanoic acid]
- EC50 (human S1PR1 receptor): < 1000 nM
- EC50 (human S1PR3 receptor): > 1000 nM
- EC50 (human S1PR5 receptor): 10 to 100 nM

SMILES: CC(CN1CCc2nc(-c3ccc(OCc4ccccc4)c(F)c3)ccc2C1)C(=O)O (stereo not drawn) [Compound 103, 3-(2-(4-(benzyloxy)-3-fluorophenyl)-7,8-dihydro-1,6-naphthyridin-6(5H)-yl)-2-methylpropanoic acid]
- EC50 (human S1PR1 receptor): > 1000 nM
- EC50 (human S1PR3 receptor): > 1000 nM
- EC50 (human S1PR5 receptor): 10 to 100 nM

SMILES: O=C(O)CCN1CCc2nc(-c3ccc(OCc4ccc(C(F)(F)F)cc4)cc3)c(F)cc2C1 [Compound 191, 3-(2-(4-((4-trifluoromethylbenzyl)oxy)phenyl)-3-fluoro-7,8-dihydro-1,6-naphthyridin-6(5H)-yl)propanoic acid]
- EC50 (human S1PR1 receptor): < 1000 nM
- EC50 (human S1PR3 receptor): > 1000 nM
- EC50 (human S1PR5 receptor): < 10 nM

SMILES: O=C(O)CCN1CCc2nc(-c3ccc(OCc4cccc(F)c4F)cc3)c(F)cc2C1 [Compound 197]
- EC50 (human S1PR1 receptor): < 1000 nM
- EC50 (human S1PR3 receptor): > 1000 nM
- EC50 (human S1PR5 receptor): < 10 nM

The next lines start with the values.

- EC50 (human S1PR1 receptor): < 1000 nM
- EC50 (human S1PR3 receptor): > 1000 nM
- EC50 (human S1PR5 receptor): < 10 nM
SMILES: O=C(O)CCN1CCc2nc(-c3ccc(OCc4cccc(OC(F)F)c4)cc3)ccc2C1 [Compound 164, 3-(2-(4-((3-difluoromethoxybenzyl)oxy)phenyl)-7,8-dihydro-1,6-naphthyridin-6(5H)-yl)propanoic acid]

- EC50 (human S1PR1 receptor): > 1000 nM
- EC50 (human S1PR3 receptor): > 1000 nM
- EC50 (human S1PR5 receptor): < 10 nM
SMILES: CC(CC(=O)O)N1CCc2nc(-c3ccc(OCc4cccc(F)c4)cc3)ncc2C1 (stereo not drawn) [Compound 41, 3-(2-(4-((3-fluorobenzyl)oxy)phenyl)-7,8-dihydropyrido[4,3-d]pyrimidin-6(5H)-yl)butanoic acid]

- EC50 (human S1PR1 receptor): > 1000 nM
- EC50 (human S1PR3 receptor): > 1000 nM
- EC50 (human S1PR5 receptor): 10 to 100 nM
SMILES: O=C(O)CCN1CCc2nc(-c3ccc(OCc4ccccc4)cc3)ncc2C1 [Compound 67, 3-(2-(4-(benzyloxy)phenyl)-7,8-dihydropyrido[4,3-d]pyrimidin-6(5H)-yl)propanoic acid]

- EC50 (human S1PR1 receptor): > 1000 nM
- EC50 (human S1PR3 receptor): > 1000 nM
- EC50 (human S1PR5 receptor): 1000 to 10000 nM
SMILES: CC(C)Oc1ccc(-c2ncc3c(n2)CCN(CCCC(=O)O)C3)cc1 [Compound 46, 4-(2-(4-isopropoxyphenyl)-7,8-dihydropyrido[4,3-d]pyrimidin-6(5H)-yl)butanoic acid]

- EC50 (human S1PR1 receptor): > 1000 nM
- EC50 (human S1PR3 receptor): > 1000 nM
- EC50 (human S1PR5 receptor): < 10 nM
SMILES: O=C(O)CCN1CCc2nc(-c3ccc(OCc4cccc(Cl)c4)cc3)ncc2C1 [Compound 72, 3-(2-(4-((3-chlorobenzyl)oxy)phenyl)-7,8-dihydropyrido[4,3-d]pyrimidin-6(5H)-yl)propanoic acid]

- EC50 (human S1PR1 receptor): > 1000 nM
- EC50 (human S1PR3 receptor): > 1000 nM
- EC50 (human S1PR5 receptor): 1000 to 10000 nM
SMILES: CC(CC(=O)O)N1Cc2ccc(-c3ccc(OCc4c(Cl)cccc4Cl)cc3)nc2C1 (stereo not drawn) [Compound 201, 3-(2-(4-((2,6-dichlorobenzyl)oxy)phenyl)-5H-pyrrolo[3,4-b]pyridin-6(7H)-yl)butanoic acid]

- EC50 (human S1PR1 receptor): > 1000 nM
- EC50 (human S1PR3 receptor): > 1000 nM
- EC50 (human S1PR5 receptor): < 10 nM
SMILES: O=C(O)CCN1CCc2nc(-c3ccc(OCc4cccc(C(F)F)c4)cc3)ncc2C1 [Compound 76, 3-(2-(4-((3-difluoromethylbenzyl)oxy)phenyl)-7,8-dihydropyrido[4,3-d]pyrimidin-6(5H)-yl)propanoic acid]

- EC50 (human S1PR1 receptor): > 1000 nM
- EC50 (human S1PR3 receptor): > 1000 nM
- EC50 (human S1PR5 receptor): < 10 nM
SMILES: O=C(O)CCN1CCc2nc(-c3ccc(OCc4ccc(Cl)c(Cl)c4)cc3)ncc2C1 [Compound 73, 3-(2-(4-((3,4-dichlorobenzyl)oxy)phenyl)-7,8-dihydropyrido[4,3-d]pyrimidin-6(5H)-yl)propanoic acid]

- EC50 (human S1PR1 receptor): > 1000 nM
- EC50 (human S1PR3 receptor): > 1000 nM
- EC50 (human S1PR5 receptor): 1000 to 10000 nM
SMILES: O=C(O)CCN1CCc2ncc(-c3ccc(OCc4cccc(Cl)c4)cc3)nc2C1 [Compound 222, 3-(3-(4-((3-chlorobenzyl)oxy)phenyl)-7,8-dihydropyrido[3,4-b]pyrazin-6(5H)-yl)propanoic acid]

- EC50 (human S1PR1 receptor): < 1000 nM
- EC50 (human S1PR3 receptor): > 1000 nM
- EC50 (human S1PR5 receptor): < 10 nM
SMILES: CC(CN1CCc2nc(-c3ccc(OCc4cccc(F)c4F)cc3)ncc2C1)C(=O)O (stereo not drawn) [Compound 16, 3-(2-(4-((2,3-difluorobenzyl)oxy)phenyl)-7,8-dihydropyrido[4,3-d]pyrimidin-6(5H)-yl)-2-methylpropanoic acid]

- EC50 (human S1PR1 receptor): > 1000 nM
- EC50 (human S1PR3 receptor): > 1000 nM
- EC50 (human S1PR5 receptor): 10 to 100 nM
SMILES: CC(CC(=O)O)N1CCc2nc(-c3ccc(OCc4ccc(Cl)cc4)cc3)ncc2C1 (stereo not drawn) [Compound 44, 3-(2-(4-((4-chlorobenzyl)oxy)phenyl)-7,8-dihydropyrido[4,3-d]pyrimidin-6(5H)-yl)butanoic acid]

- EC50 (human S1PR1 receptor): < 1000 nM
- EC50 (human S1PR3 receptor): > 1000 nM
- EC50 (human S1PR5 receptor): < 10 nM
SMILES: Cc1c(COc2ccc(-c3ncc4c(n3)CCN(CCC(=O)O)C4)cc2)cccc1C(F)(F)F [Compound 94, 3-(2-(4-((2-methyl-3-(trifluoromethyl)benzyl)oxy)phenyl)-7,8-dihydropyrido[4,3-d]pyrimidin-6(5H)-yl)propanoic acid]

- EC50 (human S1PR1 receptor): > 1000 nM
- EC50 (human S1PR3 receptor): > 1000 nM
- EC50 (human S1PR5 receptor): < 10 nM
SMILES: O=C(O)CCN1CCc2nc(-c3ccc(OCc4ccccc4C(F)F)cc3)ncc2C1 [Compound 78, 3-(2-(4-((2-difluoromethylbenzyl)oxy)phenyl)-7,8-dihydropyrido[4,3-d]pyrimidin-6(5H)-yl)propanoic acid]

- EC50 (human S1PR1 receptor): < 1000 nM
- EC50 (human S1PR3 receptor): > 1000 nM
- EC50 (human S1PR5 receptor): < 10 nM
SMILES: Cc1cccc(C)c1COc1ccc(-c2ncc3c(n2)CCN(CC(C)C(=O)O)C3)cc1 (stereo not drawn) [Compound 15, 3-(2-(4-((2,6-dimethylbenzyl)oxy)phenyl)-7,8-dihydropyrido[4,3-d]pyrimidin-6(5H)-yl)-2-methylpropanoic acid]

- EC50 (human S1PR1 receptor): > 1000 nM
- EC50 (human S1PR3 receptor): > 1000 nM
- EC50 (human S1PR5 receptor): 1000 to 10000 nM
SMILES: O=C(O)CCN1Cc2cnc(-c3ccc(OCc4ccccc4)cc3)nc2C1 [Compound 100, 3-(2-(4-(benzyloxy)phenyl)-5H-pyrrolo[3,4-d]pyrimidin-6(7H)-yl)propanoic acid]

- EC50 (human S1PR1 receptor): > 1000 nM
- EC50 (human S1PR3 receptor): > 1000 nM
- EC50 (human S1PR5 receptor): < 10 nM
SMILES: O=C(O)CCN1CCc2nc(-c3ccc(OCc4cccc(C(F)(F)F)c4)cc3)ncc2C1 [Compound 86, 3-(2-(4-((3-(trifluoromethyl)benzyl)oxy)phenyl)-7,8-dihydropyrido[4,3-d]pyrimidin-6(5H)-yl)propanoic acid]
